According to ChEMBL document CHEMBL5321274, “Second-Generation AUTACs for Targeted Autophagic Degradation” (J Med Chem, 2023):
Calls of active or inactive are those of the source. The rule behind the calls is not given here.

Assays:
[1] = system: HeLa; assay: Induction of autophagy mediated Halotag-fused EGFP (unknown origin) degradation expressed in human HeLa cells assessed as reduction in EGFP-HT substrate level at 0.01 to 1 uM measured after 24 hrs by fluorescence microscopic analysis; format: cell-based; details: dose 0.01-1 µM
[2] = system: HeLa; assay: Induction of autophagy mediated Halotag-fused EGFP (unknown origin) degradation expressed in human HeLa cells assessed as reduction in EGFP-HT substrate level at 0.1 to 10 uM measured after 24 hrs by fluorescence microscopic analysis; format: cell-based; details: dose 0.1-10 µM
[3] = system: MEF; assay: Induction of autophagy mediated Halotag-fused EGFP (unknown origin) degradation transiently expressed in Atg5-/- MEF cells assessed as reduction in EGFP-HT substrate level at 1 uM measured after 24 hrs by fluorescence microscopic analysis; format: cell-based
[4] = system: HeLa; assay: Cytotoxicity against human HeLa cells expressing Halotag-fused EGFP assessed as reduction in cell survival rate at 0.001 to 100 uM; format: toxicity, cell-based; details: dose 0.001-100 µM
[5] = system: MEF; assay: Induction of autophagy mediated Halotag-fused EGFP (unknown origin) degradation transiently expressed in Atg5+/+ MEF cells assessed as reduction in EGFP-HT substrate level at 1 uM measured after 24 hrs by fluorescence microscopic analysis; format: cell-based
[6] = system: HeLa; assay: Induction of autophagy mediated Halotag-fused EGFP (unknown origin) degradation expressed in human HeLa cells assessed as reduction in EGFP-HT substrate level at <1 uM measured after 24 hrs by fluorescence microscopic analysis; format: cell-based
[7] = system: HeLa; assay: Induction of autophagy mediated Halotag-fused EGFP (unknown origin) degradation expressed in human HeLa cells assessed as reduction in EGFP-HT substrate level at 1 to 10 uM measured after 12 to 24 hrs by fluorescence microscopic analysis; format: cell-based; details: dose 1-10 µM, time 12-24 hrs
[8] = system: HeLa; assay: Induction of autophagy mediated Halotag-fused EGFP (unknown origin) degradation expressed in human HeLa cells assessed as reduction in EGFP-HT substrate level at 1 uM incubated for 24 hrs in presence of bafilomycin Al by fluorescence microscopic analysis; format: cell-based
[9] = system: HeLa; assay: Induction of autophagy mediated Rosella/Halotag-fused EGFP (unknown origin) degradation expressed in human HeLa cells assessed as lysosomal degradation of EGFP-HT substrate at 1 uM incubated for 24 hrs by fluorescence microscopic analysis; format: cell-based
[10] = system: HeLa; assay: Induction of autophagy mediated Halotag-fused EGFP (unknown origin) degradation expressed in human HeLa cells assessed as reduction in EGFP-HT substrate level measured after 24 hrs by fluorescence microscopic analysis; format: cell-based; details: dose 1-10 µM
[11] = system: HeLa; assay: Effect on FKBP12 mRNA transcription level in human HeLa cells at 0.1 to 10 uM incubated for 48 hrs by RT-PCR analysis; format: functional, cell-based; details: dose 0.1-10 µM
[12] = system: HeLa; assay: Induction of EGFP-tagged FKBP12 degradation in human HeLa cells assessed as reduction in FKBP12 protein level at 1 to 10 uM incubated for 48 hrs in presence of 100 uM 8H-FBnG by immunoblot analysis; format: cell-based; details: dose 1-10 µM
[13] = system: MEF; assay: Induction of EGFP-tagged FKBP12 degradation in […] MEF cells assessed as reduction in FKBP12 level incubated for 48 hrs by immunoblot analysis; format: cell-based; details: Mus musculus
[14] = system: HeLa; assay: Induction of EGFP-tagged FKBP12 degradation in human HeLa cells assessed as protein knockdown at 1 uM incubated for 48 hrs by immunoblot analysis; format: cell-based
[15] = system: MEF; assay: Induction of EGFP-tagged FKBP12 degradation in p62-/- MEF cells assessed as reduction in FKBP12 level incubated for 48 hrs by immunoblot analysis; format: cell-based; details: Mus musculus
[16] = system: HeLa; assay: Induction of EGFP-tagged FKBP12 degradation in human HeLa cells assessed as reduction in FKBP12 protein level at 0.001 to 10 uM incubated for 48 hrs in presence of bafilomycin Al treated for last 12 hrs by immunoblot analysis; format: cell-based; details: dose 0.001-10 µM

In the case of Nc1nc2c(nc(-c3cccc(OCCOCCOCCOCCOCCOCCCCCCCl)c3)n2Cc2ccc(F)cc2)c(=O)[nH]1, the Activity [1] is reported as “Active”.
For CC(=O)NC(CSc1nc2c(=O)[nH]c(N)nc2n1Cc1ccc(S(C)(=O)=O)cc1)C(=O)NCCOCCOCCOCCOCCOCCCCCCCl (single isomer, unassigned), the Activity [1] was “inactive”.
With CC(=O)NC(CSc1nc2c(=O)[nH]c(N)nc2n1Cc1ccc(C#N)cc1)C(=O)NCCOCCOCCOCCOCCOCCCCCCCl (single isomer, unassigned) the Activity [1] was “inactive”.
With COc1ccc(Cn2c(SCC(NC(C)=O)C(=O)NCCOCCOCCOCCOCCOCCCCCCCl)nc3c(=O)[nH]c(N)nc32)cc1 (single isomer, unassigned) the Activity [1] was “inactive”.
In the case of O=c1[nH]cnc2c1nc(-c1cnn(CCOCCOCCOCCOCCOCCCCCCCl)c1)n2Cc1ccc(F)cc1, the Activity [2] is reported as “inactive”.
Fc1ccc(Cn2c(-c3cnn(CCOCCOCCOCCOCCOCCCCCCCl)c3)nc3ccccc32)cc1 was tested, and the Activity [2] was “inactive”.
For Cn1c(=O)c2nc(-c3cnn(CCOCCOCCOCCOCCOCCCCCCCl)c3)n(Cc3ccc(F)cc3)c2n(C)c1=O, the Activity [2] was “inactive”.
With Fc1ccc(Cn2ccnc2-c2cnn(CCOCCOCCOCCOCCOCCCCCCCl)c2)cc1 the Activity [2] was “inactive”.
In the case of CC(=O)NC(CSc1nc2c(=O)[nH]c(N)nc2n1Cc1ccccc1)C(=O)NCCOCCOCCOCCOCCOCCCCCCCl (single isomer, unassigned), the Activity [1] is reported as “inactive”.
In the case of Nc1ncnc2c1nc(-c1cnn(CCOCCOCCOCCOCCOCCCCCCCl)c1)n2Cc1ccc(F)cc1, the Activity [2] is reported as “inactive”.
With CC(=O)NC(CSc1nc2c(=O)[nH]c(N)nc2n1Cc1ccc(C)cc1)C(=O)NCCOCCOCCOCCOCCOCCCCCCCl (single isomer, unassigned) the Activity [1] was “inactive”.
With CC(=O)NC(CSc1nc2c(=O)[nH]c(N)nc2n1Cc1cccc(F)c1)C(=O)NCCOCCOCCOCCOCCOCCCCCCCl (single isomer, unassigned) the Activity [1] was “inactive”.
For Nc1nc2c(nc(-c3cn(CCOCCOCCOCCOCCOCCCCCCCl)nn3)n2Cc2ccc(F)cc2)c(=O)[nH]1, the Activity [1] was “Active”.
In the case of CC(=O)NC(CSc1nc2c(=O)[nH]c(N)nc2n1Cc1ccccc1F)C(=O)NCCOCCOCCOCCOCCOCCCCCCCl (single isomer, unassigned), the Activity [1] is reported as “inactive”.
With Nc1nc2c(nc(-c3ccc(OCCOCCOCCOCCOCCOCCCCCCCl)cc3)n2Cc2ccc(F)cc2)c(=O)[nH]1 the Activity [1] was “Active”.
For Nc1nc2c(nc(-c3cnn(CCOCCOCCOCCOCCOCCCCCCCl)c3)n2Cc2ccc(F)cc2)c(=O)[nH]1, the Activity [3] was “inactive”, the Activity [1] was “Active” and the Activity [4] was “Non-Toxic”. For the same compound, the Activity [5] was “Active”, the Activity [6] was “Active” and the Activity [7] was “Active”. For the same compound, the Activity [8] was “inactive” and the Activity [9] was “Active”.
For CC(=O)NC(CSc1nc2c(=O)[nH]c(N)nc2n1Cc1ccc(Cl)cc1)C(=O)NCCOCCOCCOCCOCCOCCCCCCCl (single isomer, unassigned), the Activity [10] was “Dose-Dependent Effect”.
With CCC(C)(C)C(=O)C(=O)N1CCCC[C@H]1C(=O)O[C@H](CCc1ccc(OC)c(OC)c1)c1cccc(NC(=O)CCC(=O)NCCCOCCOCCOCCCn2cc(-c3nc4c(=O)[nH]c(N)nc4n3Cc3ccc(F)cc3)cn2)c1 the Activity [11] was “inactive”, the Activity [12] was “inactive” and the Activity [13] was “inactive”. For the same compound, the Activity [14] was “Active”, the Activity [15] was “inactive” and the Activity [16] was “inactive”.
